Experiments:
[1] = target: Human recombinant full-length GST-tagged RPS6KA2 (RSK3) (Homo sapiens (Human), UniProt Q15349); test: Biochemical selectivity kinase assay (Z'-LYTE FRET), RSK3; conditions: for IC50: 10 μM ATP (~Km); for RSK3 IC50/HPK1 Ki: ratio of the RSK3 IC50 to the HPK1 Ki
Excerpt: (§1) Biochemical Selectivity Kinase Assay.
(§2) The dose response curve was curve fit to model number 205 (sigmoidal dose-response model). A ratio of the PRKD2 IC50 to the HPK1 Ki and a ratio of the RSK3 IC50 to the HPK1 Ki, is provided in the respective columns adjacent to the columns for PRKD2 IC50 and RSK3 IC50.

[2] = target: human full-length autophosphorylated recombinant HPK1 (Homo sapiens (Human), UniProt Q92918); test: HPK1 biochemical enzyme assay (chelation-enhanced fluorescence, CHEF); conditions: 0.5 nM HPK1, 45 μM ATP, Morrison fit
Method in brief: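 Autophosphorylated full-length human HPK1 from Sf21 cells, His-tag removed by TEV, residual N-terminal Gly-Ser. Activity measured with a C-Sox fluorescent peptide substrate (CHEF); initial velocities followed at λex 360/λem 500 nm, 30 °C for 15 min.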

[3] = test system: Phospho-SLP-76 (Ser376) in Jurkat cells; test: Phospho-SLP-76 (Ser376) HTRF assay in anti-CD3 stimulated Jurkat cells; format: cell-based; conditions: Homo sapiens, Jurkat, 30 min pre-treatment, anti-CD3 stimulation 15 min, read-out: pSLP76 IC50
Method in brief: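 Jurkat cells pre-treated 30 min with compound (11-point 3-fold series, final 10 μM to 0.1 nM, 0.1% DMSO), then stimulated 15 min at 37° C with 200 μg/mL F(ab)2-complexed anti-CD3 (UCTH1). Lysate phospho-SLP-76 read by HTRF sandwich after overnight RT incubation; IC50 from four-parameter fit.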

[4] = target: Human recombinant full-length GST-tagged PRKD2 (PKD2) (Homo sapiens (Human), UniProt Q9BZL6); test: Biochemical selectivity kinase assay (Z'-LYTE FRET), PRKD2; conditions: for IC50: 25 μM ATP (~Km); for PRKD2 IC50/HPK1 Ki: ratio of the PRKD2 IC50 to the HPK1 Ki
Excerpt: as §1, §2

Sequence of Human recombinant full-length GST-tagged RPS6KA2 (RSK3) (Q15349 whole entry): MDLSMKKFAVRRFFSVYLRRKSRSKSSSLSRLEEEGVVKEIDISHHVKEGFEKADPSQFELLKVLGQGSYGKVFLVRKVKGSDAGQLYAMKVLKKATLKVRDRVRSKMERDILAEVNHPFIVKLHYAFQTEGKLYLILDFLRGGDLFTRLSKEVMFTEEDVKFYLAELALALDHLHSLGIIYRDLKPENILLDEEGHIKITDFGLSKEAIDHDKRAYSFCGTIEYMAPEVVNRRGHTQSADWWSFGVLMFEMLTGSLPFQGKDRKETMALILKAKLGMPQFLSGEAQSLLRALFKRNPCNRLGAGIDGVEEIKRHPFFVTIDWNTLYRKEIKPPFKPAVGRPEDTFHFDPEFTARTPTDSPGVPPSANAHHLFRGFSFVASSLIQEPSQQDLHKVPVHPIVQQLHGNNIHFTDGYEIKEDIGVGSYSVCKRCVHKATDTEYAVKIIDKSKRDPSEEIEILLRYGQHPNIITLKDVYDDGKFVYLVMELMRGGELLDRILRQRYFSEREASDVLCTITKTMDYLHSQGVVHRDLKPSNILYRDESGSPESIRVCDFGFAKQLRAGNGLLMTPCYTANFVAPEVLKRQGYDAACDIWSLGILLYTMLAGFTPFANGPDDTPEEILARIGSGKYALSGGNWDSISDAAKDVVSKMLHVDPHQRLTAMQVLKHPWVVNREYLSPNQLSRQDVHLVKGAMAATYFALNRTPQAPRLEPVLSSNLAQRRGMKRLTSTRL
Sequence of Human recombinant full-length GST-tagged PRKD2 (PKD2) (Q9BZL6 whole entry): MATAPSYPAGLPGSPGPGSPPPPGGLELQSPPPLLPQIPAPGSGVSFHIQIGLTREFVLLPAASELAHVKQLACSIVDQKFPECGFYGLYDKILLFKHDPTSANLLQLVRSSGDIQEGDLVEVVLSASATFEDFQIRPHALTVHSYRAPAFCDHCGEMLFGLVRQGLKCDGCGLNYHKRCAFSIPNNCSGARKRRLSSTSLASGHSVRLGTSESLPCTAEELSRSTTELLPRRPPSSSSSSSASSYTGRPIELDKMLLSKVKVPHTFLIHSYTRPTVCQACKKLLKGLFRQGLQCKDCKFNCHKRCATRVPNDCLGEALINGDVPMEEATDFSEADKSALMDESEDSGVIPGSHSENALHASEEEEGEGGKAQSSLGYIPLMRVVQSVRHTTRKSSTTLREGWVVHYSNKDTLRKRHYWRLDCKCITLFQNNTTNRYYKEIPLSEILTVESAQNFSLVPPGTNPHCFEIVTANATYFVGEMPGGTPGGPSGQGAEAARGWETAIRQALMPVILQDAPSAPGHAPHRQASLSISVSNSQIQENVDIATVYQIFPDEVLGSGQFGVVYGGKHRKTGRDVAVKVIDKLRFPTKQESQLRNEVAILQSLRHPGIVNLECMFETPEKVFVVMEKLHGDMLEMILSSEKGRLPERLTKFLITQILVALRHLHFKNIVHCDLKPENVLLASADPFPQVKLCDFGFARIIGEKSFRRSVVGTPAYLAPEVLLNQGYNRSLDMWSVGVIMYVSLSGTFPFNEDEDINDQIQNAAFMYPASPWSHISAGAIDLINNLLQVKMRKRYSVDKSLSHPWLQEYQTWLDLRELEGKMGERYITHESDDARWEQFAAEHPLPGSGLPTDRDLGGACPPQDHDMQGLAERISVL
Sequence of human full-length autophosphorylated recombinant HPK1 (Q92918 other isoform, or with tags, fused parts or gaps): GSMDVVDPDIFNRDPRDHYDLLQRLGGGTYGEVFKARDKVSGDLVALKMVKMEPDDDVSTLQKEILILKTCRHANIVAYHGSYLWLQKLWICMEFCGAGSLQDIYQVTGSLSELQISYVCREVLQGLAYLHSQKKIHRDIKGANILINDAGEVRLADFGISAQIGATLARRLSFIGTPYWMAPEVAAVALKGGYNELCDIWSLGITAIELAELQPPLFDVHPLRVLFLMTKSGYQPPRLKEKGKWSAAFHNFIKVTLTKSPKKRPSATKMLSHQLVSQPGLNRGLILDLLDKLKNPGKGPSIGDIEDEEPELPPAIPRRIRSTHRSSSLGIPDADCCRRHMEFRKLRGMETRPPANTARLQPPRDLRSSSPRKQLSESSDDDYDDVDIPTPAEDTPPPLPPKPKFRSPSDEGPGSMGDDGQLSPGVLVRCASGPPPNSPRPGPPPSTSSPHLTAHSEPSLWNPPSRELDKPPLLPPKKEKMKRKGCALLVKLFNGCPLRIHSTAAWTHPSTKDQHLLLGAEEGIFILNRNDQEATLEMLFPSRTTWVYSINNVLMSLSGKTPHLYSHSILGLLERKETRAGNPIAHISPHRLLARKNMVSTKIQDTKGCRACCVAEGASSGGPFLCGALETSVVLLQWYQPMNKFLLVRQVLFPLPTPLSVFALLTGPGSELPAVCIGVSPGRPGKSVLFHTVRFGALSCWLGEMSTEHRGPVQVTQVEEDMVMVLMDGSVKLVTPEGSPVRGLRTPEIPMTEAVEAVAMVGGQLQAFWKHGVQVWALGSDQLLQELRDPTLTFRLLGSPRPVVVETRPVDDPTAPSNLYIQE

| SMILES | IC50 [1] [nM] | RSK3 IC50/HPK1 Ki [1] | Ki [2] [nM] | IC50 [3] [nM] | IC50 [4] [nM] | PRKD2 IC50/HPK1 Ki [4] |
| --- | --- | --- | --- | --- | --- | --- |
| CNCc1nc(N2CCC[C@H]2C)cc2c1CN(c1cccc(-c3nnc4n3[C@@H](CF)CC4)n1)C2=O [Example 202, 2-{6-[(5R)-5-(fluoromethyl)-6,7-dihydro-5H-pyrrolo[2,1-c][1,2,4]triazol-3-yl]pyridin-2-yl}-4-[(methylamino)methyl]-6-[(2R)-2-methylpyrrolidin-1-yl]-2,3-dihydro-1H-pyrrolo[3,4-c]pyridin-1-one] | 40.1 | 667 | 0.06 | 25 | 6.54 | 108 |
| CC[C@H]1CCc2nnc(-c3cccc(N4Cc5c(cc(N6CCC[C@H]6C)nc5[C@H](C)N)C4=O)n3)n21 [Example 3, 4-[(1S)-1-aminoethyl]-2-{6-[(5S)-5-ethyl-6,7-dihydro-5H-pyrrolo[2,1-c][1,2,4]triazol-3-yl]pyridin-2-yl}-6-[(2R)-2-methylpyrrolidin-1-yl]-2,3-dihydro-1H-pyrrolo[3,4-c]pyridin-1-one] | 3.33 | >66 | < 0.05 | 34 | 6.54 | >130 |
| CCn1cnnc1-c1cccc(N2Cc3c(cc(N4CCC[C@H]4C)nc3C(C)(C)N)C2=O)n1 [Example 100, 4-(2-aminopropan-2-yl)-2-[6-(4-ethyl-4H-1,2,4-triazol-3-yl)pyridin-2-yl]-6-[(2R)-2-methylpyrrolidin-1-yl]-2,3-dihydro-1H-pyrrolo[3,4-c]pyridin-1-one] | 15.5 | >320 | < 0.05 | 39 | 51.2 | >1020 |
| CC[C@H]1CCc2nnc(-c3cccc(N4Cc5c(cc(N6CCC[C@H]6C)nc5CNC)C4=O)n3)n21 [Example 200, 2-{6-[(5S)-5-ethyl-6,7-dihydro-5H-pyrrolo[2,1-c][1,2,4]triazol-3-yl]pyridin-2-yl}-4-[(methylamino)methyl]-6-[(2R)-2-methylpyrrolidin-1-yl]-2,3-dihydro-1H-pyrrolo[3,4-c]pyridin-1-one] | 10.1 | >200 | < 0.05 | 16 | 7.97 | >160 |
| CC[C@H]1CCc2nnc(-c3cccc(N4Cc5c(cc(N(C)C(C)C)nc5[C@@H](C)N)C4=O)n3)n21 [Example 4, 4-[(1R)-1-aminoethyl]-2-{6-[(5S)-5-ethyl-6,7-dihydro-5H-pyrrolo[2,1-c][1,2,4]triazol-3-yl]pyridin-2-yl}-6-[methyl(propan-2-yl)amino]-2,3-dihydro-1H-pyrrolo[3,4-c]pyridin-1-one] | 25.8 | >520 | < 0.05 | 36 | 217 | >4304 |
| CC[C@@H](N)c1nc(N2CCC[C@H]2C)cc2c1CN(c1cccc(-c3nnc4n3[C@@H](C)CC4)n1)C2=O [Example 1, 4-[(1R)-1-aminopropyl]-2-{6-[(5S)-5-methyl-6,7-dihydro-5H-pyrrolo[2,1-c][1,2,4]triazol-3-yl]pyridin-2-yl}-6-[(2R)-2-methylpyrrolidin-1-yl]-2,3-dihydro-1H-pyrrolo[3,4-c]pyridin-1-one] | 47 |  |  |  | 155 |  |
| CCCn1cnnc1-c1cccc(N2Cc3c(cc(N(C)C)nc3CNC)C2=O)n1 [Example 300, 6-(dimethylamino)-4-[(methylamino)methyl]-2-[6-(4-propyl-4H-1,2,4-triazol-3-yl)pyridin-2-yl]-2,3-dihydro-1H-pyrrolo[3,4-c]pyridin-1-one] | 6.26 | 23 |  | 94 | 1.93 | 14 |
| CNCc1nc(N(C)C(C)C)cc2c1CN(c1cccc(-c3nnc4n3[C@@H](C)C[C@H]4C)n1)C2=O [Example 212, 2-{6-[(5S,7R)-5,7-dimethyl-6,7-dihydro-5H-pyrrolo[2,1-c] [1,2,4]triazol-3-yl]pyridin-2-yl}-4-[(methyl-amino)methyl]-6-[methyl (propan-2-yl)amino]-2,3-dihydro-1H-pyrrolo[3,4-c] pyridin-1-one] |  |  | 0.32 | 159 |  |  |
| CC[C@@H]1CCc2nnc(-c3cccc(N4Cc5c(cc(N6CCC[C@H]6C)nc5[C@H](N)CC)C4=O)n3)n21 (single isomer, unassigned) [Example 13] |  |  | < 0.07 | 36 |  |  |
| CCN(C)c1cc2c(c([C@H](C)N)n1)CN(c1cccc(-c3nnc(C)n3CC)n1)C2=O (single isomer, unassigned) [Example 128, 4-[(1ξ)-1-aminoethyl]-6-[ethyl(methyl)amino]-2-[6-(4-ethyl-5-methyl-4H-1,2,4-triazol-3-yl)pyridin-2-yl]-2,3-dihydro-1H-pyrrolo[3,4-c]pyridin-1-one] |  |  | 1.03 | 194 |  |  |
| CC[C@H]1CCc2nnc(-c3cccc(N4Cc5c(cc(N(C)C(C)C)nc5CNC)C4=O)n3)n21 [Example 201, 2-{6-[(5S)-5-ethyl-6,7-dihydro-5H-pyrrolo[2,1-c][1,2,4]triazol-3-yl]pyridin-2-yl}-4-[(methylamino)methyl]-6-[methyl(propan-2-yl)amino]-2,3-dihydro-1H-pyrrolo[3,4-c]pyridin-1-one] | 6.73 | >134 | < 0.05 | 37 | 5.43 | >108 |
| CCCn1c(C)nnc1-c1cccc(N2Cc3c(cc(N4CCC[C@H]4C)nc3[C@H](C)N)C2=O)n1 (single isomer, unassigned) [Example 136] |  |  | 0.22 | 90 |  |  |
| CCn1cnnc1-c1cccc(N2Cc3c(cc(C4(C)CC4)nc3[C@H](C)N)C2=O)n1 [Example 116, 4-[(1S)-1-aminoethyl]-2-[6-(4-ethyl-4H-1,2,4-triazol-3-yl)pyridin-2-yl]-6-(1-methylcyclo-propyl)-2,3-dihydro-1H-pyrrolo[3,4-c]pyridin-1-one] |  |  | 0.64 | 214 |  |  |
| CCCn1cnnc1-c1cccc(N2Cc3c(cc(N(C)C)nc3C(C)(C)N)C2=O)n1 [Example 131, 4-(2-aminopropan-2-yl)-6-(dimethyl-amino)-2-[6-(4-propyl-4H-1,2,4-triazol-3-yl)pyridin-2-yl]-2,3-dihydro-1H-pyrrolo[3,4-c]pyridin-1-one] |  |  | 1.02 | 94 |  |  |
| CCn1cnnc1-c1cccc(N2Cc3c(cc(N(C)C)nc3C(C)(C)N)C2=O)n1 [Example 132, 4-(2-aminopropan-2-yl)-6-(dimethyl-amino)-2-[6-(4-ethyl-4H-1,2,4-triazol-3-yl)pyridin-2-yl]-2,3-dihydro-1H-pyrrolo[3,4-c]pyridin-1-one] |  |  | 0.38 | 148 |  |  |
| CCn1cnnc1-c1cccc(N2Cc3c(cc(C4(C)CC4)nc3[C@@H](C)NC)C2=O)n1 [Example 111, 2-[6-(4-ethyl-4H-1,2,4-triazol-3-yl)pyridin-2-yl]-4-[(1R)-1-(methylamino)ethyl]-6-(1-methylcyclo-propyl)-2,3-dihydro-1H-pyrrolo[3,4-c]pyridin-1-one] |  |  | 3.42 | 470 |  |  |
| CC[C@@H]1CCc2nnc(-c3cccc(N4Cc5c(cc(N6CCC[C@H]6C)nc5[C@@H](N)CC)C4=O)n3)n21 (single isomer, unassigned) [Example 16] |  |  | 0.093 | 487 |  |  |
| CCn1cnnc1-c1cccc(N2Cc3c(cc(N4CCC[C@H]4C)nc3[C@H](C)N)C2=O)n1 (single isomer, unassigned) [Example 150] |  |  | 0.11 | 59 |  |  |
| CC[C@@H](N)c1nc(N2CCC[C@H]2C)cc2c1CN(c1cccc(-c3nncn3CC)n1)C2=O [Example 140, 4-[(1R)-1-aminopropyl]-2-[6-(4-ethyl-4H-1,2,4-triazol-3-yl)pyridin-2-yl]-6-[(2R)-2-methylpyrroli-din-1-yl]-2,3-dihydro-1H-pyrrolo[3,4-c]pyridin-1-one] |  |  | < 0.07 | 53 |  |  |
| C[C@H](N)c1nc(N2CCC[C@H]2C)cc2c1CN(c1cccc(-c3nnc4n3[C@@H](C)CC4)n1)C2=O (single isomer, unassigned) [Example 26] |  |  | 0.72 | 133 |  |  |
| CC[C@@H](N)c1nc(C2(C)CC2)cc2c1CN(c1cccc(-c3nncn3CC)n1)C2=O (single isomer, unassigned) [Example 119, 4-[(1ξ)-1-aminopropyl]-2-[6-(4-ethyl-4H-1,2,4-triazol-3-yl)pyridin-2-yl]-6-(1-methylcyclo-propyl)-2,3-dihydro-1H-pyrrolo[3,4-c]pyridin-1-one] |  |  | 0.9 | 165 |  |  |
| C[C@@H]1CCCN1c1cc2c(c([C@@H](C)N)n1)CN(c1cccc(-c3nnc4n3[C@@H](CO)CC4)n1)C2=O [Example 30, 4-[(1R)-1-aminoethyl]-2-{6-[(5R)-5-(hydroxy-methyl)-6,7-dihydro-5H-pyrrolo[2,1-c][1,2,4]triazol-3-yl]pyridin-2-yl}-6-[(2R)-2-methylpyrroli-din-1-yl]-2,3-dihydro-1H-pyrrolo[3,4-c]pyridin-1-one] |  |  | < 0.05 | 62 |  |  |
